Assay results as given in patent US7001736B1, “Pharmacogenetic methods for use in the treatment of nervous system diseases” (priority 1995, dated 2006).
Where two headings read alike, the source gives them in different places.

Tests used:
patients with AD = test system: patients with AD
Description: In this example we characterize patients with AD recruited for a large multi center study of tacrine and to investigate the impact of apoE allele load on short-term outcomes in placebo-treated patients, short-term Tacrine™ treatment effects, and long-term treatment outcome. The patients were classified by sex and dosage.
The 30-week study was randomized, double-blind, placebo-controlled, parallel-group clinical trial conducted at 33 centers in the USA (see Knapp, M. J. et al. JAMA 271: 985–991 (1995) for complete methodology). Patients randomized to tacrine treatment received an initial dose of 40 mg/day (10 mg QID) and were force-titrated at 6-week intervals in increments of 40 mg to maximum dose levels of 80, 120, and 160 mg/day for Groups II, III, and IV, respectively. Group I received placebo for the entire 30 weeks. The protocol was approved by Institutional Review Boards for each study center and followed guidelines of the Declaration of Helsinki and Good Clinical Practices.
Patients eligible for the 30-week study were men and women, at least 50 years of age, meeting National Institute of Neurological and Communicative Disorders and Stroke (NINCDS) criteria for a diagnosis of probable AD. […] Disease severity at the time of study entry was defined mild to moderate based on Mini-Mental State Examination. (MMSE) scores between 10 and 26 inclusive. Written informed consent was obtained from care givers and patients or their legal representatives. Medications with known central nervous system effects were prohibited during double-blind treatment. Once patients completed or terminated from the double-blind phase of the study there were no restrictions on concurrent medications. Patients who stopped tacrine treatment could take other investigational drugs.
The ADAS-Cog is an objective test that evaluates memory, language, and praxis and is a sensitive measure of patient performance (maximum severity score of […]). A decrease in score indicates improvement.
Four comparisons of tacrine 160 mg/day versus placebo were conducted: (1) without adjusting for ApoE4; (2) adjusting for the presence or absence of ApoE4; (3) for patients with Apo E4; and (4) without Apo E4. The estimated treatment differences, 95% confidence intervals for the treatment differences, and parametric p-values were computed from an analysis of variance (ANOVA) that included effects for randomized treatment group (placebo, 80 mg/day, 120 mg/day, and 160 mg/day) and study site. An analysis of covariance (ANCOVA) for ADAS-Cog also included baseline score a covariant. Least-square means were used to estimate the effect of the E4 allele on Week 30 efficacy scores.
The change in ADAS-Cog scores at Week 30 were estimated for: (1) placebo patients with an E4 allele, (2) placebo patients without an E4 allele, (3) Tacrine™ 160 mg/day patients with an E4 allele, and (4) Tacrine™ 160 mg/day patients without an E4 allele using ANCOVA that adjusted for site and baseline score. Similarly, Week 30 CIBIC and FCCA scores were estimated using ANOVA adjusted for study site effects.

AD patients = settings: maximum dose, 40 to 160 mg/d over 30 weeks
Description: The patients selection done on the basis of presence and absence of drug response to the treatment. The Alzheimer's Disease Assessment Scale (ADAS) used to monitor treatment effects. […] The ADAS-cog is an objective test that evaluates memory, attention, reasoning, orientation and praxis: a decrease score over time (or a positive difference) indicates improvement (Rosen W. G. et al, 1984, Am. J. Psychiatr., 141:1356 1364). The AD total includes the cognitive and non-cognitive portion of the ADAS.
Each bar represents an individual subjects. Positive delta values (difference in AD score at the end minus AD score prior to drug treatment) indicate improvement in cognitive performance (ADcog) and in global performances (ADAS-total). Negative values represent patients who deteriorated over time and drug treatment. All the subjects are AD subjects, all were treated with the same drug, at the same level, for the same duration.

## Nc1c2c(nc3ccccc13)CCCC2 [Tacrine, tacrine]
Patients with AD; men having two E4 alleles
  response to tacrine: do not respond
Patients with AD; men, Tacrine high, E4/X
  % of subjects with an improvement of the ADAS-COG score by at least 5 points: 69%
Patients with AD; men, Tacrine high, EX/X
  % of subjects with an improvement of the ADAS-COG score by at least 5 points: 29%
Patients with AD; men, Tacrine low, E4/4
  % of subjects with an improvement of the ADAS-COG score by at least 5 points: 0%
Patients with AD; men, Tacrine low, E4/X
  % of subjects with an improvement of the ADAS-COG score by at least 5 points: 14%
Patients with AD; men, Tacrine low, EX/X
  % of subjects with an improvement of the ADAS-COG score by at least 5 points: 33%
Patients with AD; men, Tacrine mid, E4/4
  % of subjects with an improvement of the ADAS-COG score by at least 5 points: 0%
Patients with AD; men, Tacrine mid, E4/X
  % of subjects with an improvement of the ADAS-COG score by at least 5 points: 34%
Patients with AD; men, Tacrine mid, EX/X
  % of subjects with an improvement of the ADAS-COG score by at least 5 points: 0%
Patients with AD; women having two E4 alleles
  response to tacrine: do not respond
Patients with AD; women, Tacrine high, E4/X
  % of subjects with an improvement of the ADAS-COG score by at least 5 points: 20%
Patients with AD; women, Tacrine high, EX/X
  % of subjects with an improvement of the ADAS-COG score by at least 5 points: 43%
Patients with AD; women, Tacrine low, E4/4
  % of subjects with an improvement of the ADAS-COG score by at least 5 points: 0%
Patients with AD; women, Tacrine low, E4/X
  % of subjects with an improvement of the ADAS-COG score by at least 5 points: 20%
Patients with AD; women, Tacrine mid, E4/4
  % of subjects with an improvement of the ADAS-COG score by at least 5 points: 0%
Patients with AD; women, Tacrine mid, E4/X
  % of subjects with an improvement of the ADAS-COG score by at least 5 points: 24%
Patients with AD; women, Tacrine mid, EX/X
  % of subjects with an improvement of the ADAS-COG score by at least 5 points: 67%
AD patients; apoE4 negative AD subjects
  subjects showing improvement with tacrine administration (AD total): more than 85%
AD patients; apoE4 positive AD subjects
  subjects worse following drug treatment (AD total): 60%
